The values that follow come from patent US8017576B2, “Methods and compositions to treat mucositis” (The University of Chicago, priority 2005, dated 2011).

Where no end group is shown, it is not given here.

In series [1] the test system is human colonic Caco2 (C2) cell monolayers. Briefly: Tight junction recovery after low-calcium disruption, ZO-1 confocal microscopy. Format: cell-based. Particulars: low-calcium medium (3 μM) 1 hour, assessed 2 hours after addition; AMP peptide 8 μg/ml, KGF-1 100 ng/ml, EGF 100 ng/ml. The method, then:
The AMP77-97 peptide prevented decreases in TJ proteins and epithelial integrity seen after treatment of human colonic Caco2 (C2) cell monolayers with the oxidant monochloramine, which disrupts intercellular junctions (FIG. 2; C,D). These cells were exposed to low-calcium medium (3 μM) for 1 hr to disrupt TJs, and then allowed to recover in medium containing AMP77-97 peptide, epidermal growth factor (EGF) or keratinocyte growth factor (KGF-1) which are known epithelial cell mitogens that might facilitate recovery of disrupted TJs. […] At the molecular level, AMP77-97 peptide facilitates the formation of TJs by enhancing translocation of several proteins (protein kinase C-zeta, Par6, Cdc42, ECT2 and Par3) from the cytosol into TJ domains.
Localization of the tight junction protein ZO-1 was monitored by indirect immunofluorescence laser scanning confocal microscopy in confluent monolayers of C2 cells. […] To disrupt tight junctions, cells were switched to low-calcium medium (3 μM) for 1 hour. Then a growth factor at a known mitogenic concentration was added to the medium, and 2 hours later its effect on tight junction formation was assessed by confocal microscopy. Vehicle, AMP peptide (8 μg/ml), KGF-1 (100 ng/ml), and EGF (100 ng/ml) were compared.

In series [2] the test system is BDF-1, C3H/OuJ, C3H/HeN, C57Bl/6 and Balb c mice. Briefly: Study 2: thickening of oral epithelium in five mouse strains. Format: in vivo. As to conditions: Study 2, five mouse strains. The text has this:
In Study 2, the effect of AMP77-97 peptide on thickening in the oral epithelium was compared in five different strains of mice. […] Hyperkeratosis was again observed in the esophagus of BDF-1 mice, and was also seen in C3H/HeN mice.

The test system of series [3] is BDF-1 mice. Particulars: mouse, in vivo. The method, then: AMP77-97 peptide (25 mg/kg, s.c.) was administered 5 days before and 10 days after radiation of the tongue in the BDF-1 mouse model of oral mucositis. Photomicrographs were prepared 10 days after radiation. Tissue from control irradiated mice treated with vehicle (saline) show substantial epithelial and connective tissue cell loss in both compartments compared to normal mouse tongue.
In Study 3, mucositis was induced in BDF-1 mice (n=40) by administering a single dose of radiation of 30 Gy to the snout. To evaluate the effect of AMP77-97 peptide in this setting of radiation-induced injury of the epithelial and connective tissue compartments of the tongue, mouse AMP77-97 peptide (25 mg/kg) was administered once daily subcutaneously before and after radiation (days −5 to 10; radiation on day 0). […] The evaluation was performed on day 10 when mucositis injury is at its peak. This effect on connective tissue supported that AMP77-97 peptide has beneficial effects on multiple cell and tissue types damaged by radiation.

The subject of the next series is Syrian golden hamsters. Briefly: Study 1: epithelial thickening of oral mucosal surfaces in hamsters. As to conditions: Study 1, hamsters. Format: in vivo, hamster. The method, then:
(§1) The capacity of the AMP77-97 peptide to induce epithelial thickening of oral mucosal surfaces in mice and hamsters was studied to determine if these animals could be used to evaluate the potential of AMP77-97 peptide in the treatment of oral mucositis. In Study 1, female BDF-1 mice (n=8) and Syrian golden hamsters (n=8) were given daily subcutaneous injections of saline, mouse AMP77-97 peptide at 5 mg/kg, or 25 mg/kg for five days. […] There also appeared to be an increase in both hyperplasia and hyperkeratosis with increasing dose (more prevalent/pronounced in the animals receiving 25 mg/kg than those receiving 5 mg/kg) and duration of dosing (there were some effects seen at 2 days, but were more readily seen after 5 consecutive days). The effect was more easily observed on the dorsal than the ventral surface of the tongue.

In series [4] the test system is BDF-1 mice. Briefly: Study 1: epithelial thickening of oral mucosal surfaces in mice. Format: in vivo. Particulars: Study 1, mice. As to the method: as §1
Another series concerns hamster cheek pouch. Briefly: Study 6: radiation-induced cheek pouch mucositis, topical dosing. Format: in vivo. Particulars: each of the hamster cheek pouch studies and the mouse model. As to the method:
In a separate test of efficacy (Study 6), AMP77-97 peptide was administered topically into the hamster cheek pouch (n=32). Doses of 0.5, 5 or 50 mg/kg AMP77-97 peptide in PBS were placed in the pouch three times daily from days −5 to −1 before radiation and 1 to 15 after radiation.
Acute Radiation-induced Mucositis. Oral mucositis was induced in hamsters by administering a single dose of radiation of 40 Gy. On day 0, under anesthesia (intraperitoneal injection of ketamine [160 mg/kg] and xylazine [8 mg/kg]), the left buccal pouch was everted, fixed, and radiated while the rest of the animal was shielded with lead cover. Radiation was generated using a 160-kV potential (18.75-ma) source at a focal distance of about 21 cm, hardened with a 3-mm Al filtration system. Ionizing radiation was targeted at the left buccal pouch mucosa at a rate of 1.32 Gy/minute.
Mucositis Evaluation: The progression of mucositis was monitored daily for both models. Every other day starting on day 6 postirradiation, animals were anesthetized using inhalation anesthesia, and the left buccal pouch was everted and photographed. At the conclusion of the study's clinical phase, film was developed, and resulting photos were randomly numbered and then scored in blinded fashion by two observers. […] Severity of oral mucositis (OM) was calculated using the scores per treatment group on each observation day (mean±SE). […]

For “EGF: epidermal growth factor, known epithelial cell mitogen [reference compound]”, in series [1], the “formation of new tight junctions / localization of ZO-1” value is “persistent separation of cells with TJ disruption and apparent loss of ZO-1”.

“LDALVKEKKLQGKGPGGPPPK [AMP77-97 peptide]”: the “toxicity (weight gain, mortality)” value (in series [2]; in the series on Syrian golden hamsters; with BDF-1 mice [4]) was “no evidence of any toxicity” throughout. Moreover, the toxicity result in the series on BDF-1 mice [3] is reported as “no evidence of any toxicity”. Besides, the “toxicity as measured by weight loss or mortality” value with hamster cheek pouch is recorded as “no signs of toxicity”.
